Test system: PniDAH7PS
Details: read-out: CM activity / KM, 50 mM BTP pH 7.4, 35 °C

## C=C(O[C@@H]1C=C(C(=O)O)C=C[C@H]1O)C(=O)O [chorismate]
  Km: 21 ± 2 µM
